Among the data in patent US20110086759A1, “CHEMICAL COMPOUNDS” (SYNGENTA CROP PROTECTION, INC., priority 2007, published 2011) are pest or weed control values, retold here.

Common to all, as to format: in vivo
Assay [1] deals with Alopecurus myosuroides (ALOMY). Kind of assay: Pre-emergence biological efficacy, glasshouse pot test. The settings on record: 312 h, pre-emergence, rate 1,000 g/ha, evaluated after 13 days (100=total damage to plant; 0=no damage), read-out: Percentage damage caused to weed species, ALOMY. An outline of the steps:
(§1)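 Glasshouse pot test: spray on soil one day after sowing, 1000 or 250 g/ha. Conditions 24/16 °C day/night, 14 h light, 65% humidity. Plant damage scored 0–100 at 13 days.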

For assay [2], the system named is Ipomea hederaceae (IPOHE). The description is as above. As to conditions: Ipomoea hederacea, 312 h; pre-emergence, rate 1,000 g/ha, evaluated after 13 days (100=total damage to plant; 0=no damage); read-out: Percentage damage caused to weed species, IPOHE. The essentials:
as §1

Assay [3] has as its system Setaria faberi (SETFA). The description is as above. As to conditions: 312 h, pre-emergence, rate 1,000 g/ha, evaluated after 13 days (100=total damage to plant; 0=no damage), read-out: Percentage damage caused to weed species, SETFA. An outline of the steps: as §1
Assay [4] has as its system Echinochloa crus-galli (ECHCG). The description is as above. As to conditions: 312 h, pre-emergence, rate 1,000 g/ha, evaluated after 13 days (100=total damage to plant; 0=no damage), read-out: Percentage damage caused to weed species, ECHCG. The essentials:
as §1

Assay [5] deals with Amaranthus retoflexus (AMARE). The assay is described as above. The settings on record: Amaranthus retroflexus, 312 h; pre-emergence, rate 1,000 g/ha, evaluated after 13 days (100=total damage to plant; 0=no damage); read-out: Percentage damage caused to weed species, AMARE. An outline of the steps:
as §1

The test system of assay [6] is Solanum nigrum (SOLNI). The description is as above. As to conditions: 312 h, pre-emergence, rate 1,000 g/ha, evaluated after 13 days (100=total damage to plant; 0=no damage), read-out: Percentage damage caused to weed species, SOLNI. An outline of the steps: as §1
In assay [7] the test system is Alopecurus myosuroides (ALOMY). The experiment in a line: Post-emergence biological efficacy, glasshouse pot test. The settings on record: 312 h, Rate 1,000 g/ha, post-emergence spray, evaluated after 13 days (100=total damage to plant; 0=no damage to plant), read-out: Percentage damage caused to weed species, post-emergence, ALOMY. The essentials:
(§2)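 Pot-grown weeds were sprayed 8 days after sowing with test compound in acetone/water (50:50) with 0.5% Tween 20 at 1000 or 250 g/ha. Glasshouse at 24/16° C day/night, 14 h light, 65% humidity. Damage scored 0-100 (100 = total damage) after 13 days.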

Assay [8] concerns Ipomea hederaceae (IPOHE). Described as above. The settings on record: Ipomoea hederacea, 312 h; Rate 1,000 g/ha; post-emergence spray; evaluated after 13 days (100=total damage to plant; 0=no damage to plant); read-out: Percentage damage caused to weed species, post-emergence, IPOHE. An outline of the steps:
as §2

The test system of assay [9] is Setaria faberi (SETFA). Described as above. The settings on record: 312 h, Rate 1,000 g/ha, post-emergence spray, evaluated after 13 days (100=total damage to plant; 0=no damage to plant), read-out: Percentage damage caused to weed species, post-emergence, SETFA. The essentials: as §2
The test system of assay [10] is Echinochloa crus-galli (ECHCG). The assay is described as above. As to conditions: 312 h, Rate 1,000 g/ha, post-emergence spray, evaluated after 13 days (100=total damage to plant; 0=no damage to plant), read-out: Percentage damage caused to weed species, post-emergence, ECHCG. An outline of the steps:
as §2

Assay [11] concerns Amaranthus retoflexus (AMARE). Described as above. As to conditions: Amaranthus retroflexus, 312 h; Rate 1,000 g/ha; post-emergence spray; evaluated after 13 days (100=total damage to plant; 0=no damage to plant); read-out: Percentage damage caused to weed species, post-emergence, AMARE. The essentials:
as §2

Assay [12] relates to Solanum nigrum (SOLNI). Described as above. As to conditions: 312 h, Rate 1,000 g/ha, post-emergence spray, evaluated after 13 days (100=total damage to plant; 0=no damage to plant), read-out: Percentage damage caused to weed species, post-emergence, SOLNI. An outline of the steps: as §2

Each structure is given as a SMILES string.

Regarding `C=CCN(Cc1cccs1)c1nc(C2CC2)nc(C(=O)OC)c1Cl` [Compound 151-140, 5-Chloro-2-cyclopropyl-6-methoxycarbonyl-4-(N-prop-2-en-1-yl-N-thiophen-2-ylmethyl-amino)-pyrimidine], the pest or weed control at 1000 g/ha in assay [1] was determined as 0%; in assay [2], 20%; in assay [3], 10%; in [4], 0%; in [5], 100%; in assay [6] it was 70%. The pest or weed control at 1000 g/ha was found to be 10% in assay [7]; 70% in assay [8]; 50% in assay [9]; 10% in assay [10]; 60% in assay [11]; 50% in assay [12].

Turning to `C=CCN(Cc1ccc(Cl)s1)c1nc(C2CC2)nc(C(=O)OC)c1Cl` [Compound 151-141, 5-Chloro-4-[N-(5-chlorothiophen-2-ylmethyl)-N-prop-2-en-1-yl-amino]-2-cyclopropyl-6-methoxycarbonyl-pyrimidine], the pest or weed control at 1000 g/ha was 10% in assay [1]; 40% in [2]; 0% in assay [3]; 0% in assay [4]; 50% in assay [5]; 0% in assay [6]. For the same compound, the pest or weed control at 1000 g/ha in [7] was 10%; in assay [8] it was 70%; in assay [9], 60%; in [10] it was 10%; in [11], 40%; in assay [12], 40%.

As for `COC(=O)c1nc(C2CC2)nc(N(CC=C(C)C)Cc2ccccc2C(F)(F)F)c1Cl` [Compound 152-75, 5-Chloro-2-cyclopropyl-6-methoxycarbonyl-4-[N-(3-methylbut-2-en-1-yl)-N-(2-trifluoromethyl-phenylmethyl)-amino]pyrimidine], the pest or weed control at 1000 g/ha in assay [1] stood at 20%; in assay [2] it was 80%; in [3] it was 40%; in [4], 10%; in [5] it was 80%; in assay [6] it was 20%. Moreover, the pest or weed control at 1000 g/ha in assay [7] is 10%; in assay [8], 60%; in assay [9] it was 10%; in [10], 0%; in assay [11], 50%; in assay [12], 60%.

Consider `C=CCCN(Cc1ccccc1)c1nc(C2CC2)nc(C(=O)OC)c1Cl` [Compound 154-60, 4-(N-But-3-enyl-N-phenylmethyl-amino)-5-chloro-2-cyclopropyl-6-methoxycarbonyl-pyrimidine], for which the pest or weed control at 1000 g/ha came out at 0% in [1]; 0% in [2]; 0% in assay [3]; 0% in assay [4]; 40% in [5]; 0% in [6]. Also, the pest or weed control at 1000 g/ha in assay [7] was determined as 20%; in [8] it was 80%; in [9], 30%; in assay [10], 20%; in assay [11], 60%; in [12], 50%.

On to `COC(=O)c1nc(C2CC2)nc(N(Cc2ccccc2)Cc2ccccc2)c1Cl` [Compound 155-60, 5-Chloro-2-cyclopropyl-4-dibenzylamino-6-methoxycarbonyl-pyrimidine], for which the pest or weed control at 1000 g/ha in assay [1] worked out at 0%; in assay [2] it was 40%; in assay [3] it was 0%; in assay [4], 0%; in assay [5] it was 30%; in assay [6], 0%. The pest or weed control at 1000 g/ha turned out to be 10% in assay [7]; 80% in assay [8]; 40% in assay [9]; 10% in [10]; 70% in [11]; 80% in assay [12].

Consider `COC(=O)c1nc(C2CC2)nc(N(Cc2ccccc2)CC(O)c2ccccc2)c1Cl` (stereo not drawn) [Compound 155-257, 5-Chloro-2-cyclopropyl-4-[N-(2-hydroxy-2-phenylethyl)-N-phenylmethyl-amino]-6-methoxycarbonyl-pyrimidine], for which the pest or weed control at 1000 g/ha in assay [1] is 10%; in assay [2], 30%; in assay [3] it was 20%; in assay [4], 10%; in [5] it was 30%; in assay [6], 10%. Besides, the pest or weed control at 1000 g/ha is 20% in assay [7]; 50% in assay [8]; 50% in assay [9]; 0% in [10]; 90% in assay [11]; 80% in [12].

Turning to `COC(=O)c1nc(C2CC2)nc(N(CCO)Cc2cccnc2)c1Cl` [Compound 157-156, 5-Chloro-2-cyclopropyl-4-(N-2-hydroxyethyl-N-pyrid-3-ylmethyl--amino)-6-methoxy-carbonylpyrimidine], the pest or weed control at 1000 g/ha in assay [1] was 0%; in assay [2] it was 40%; in assay [3], 0%; in assay [4] it was 0%; in [5], 40%; in [6], 20%. The pest or weed control at 1000 g/ha in assay [7] was 0%; in [8] it was 40%; in assay [9] it was 0%; in [10], 0%; in assay [11] it was 40%; in [12] it was 40%.

For the compound `COC(=O)c1nc(C2CC2)nc(N(CCO)Cc2ccc(Cl)nc2)c1Cl` [Compound 157-157, 5-Chloro-4-[N-(6-chloropyrid-3-ylmethyl)-N-2-hydroxyethyl-amino]-2-cyclopropyl-6-methoxycarbonyl-pyrimidine], the pest or weed control at 1000 g/ha stood at 10% in [1]; 40% in [2]; 30% in assay [3]; 20% in assay [4]; 100% in assay [5]; 100% in assay [6]. Further, the pest or weed control at 1000 g/ha in assay [7] was 0%; in assay [8] it was 50%; in assay [9], 0%; in [10] it was 0%; in assay [11], 50%; in [12] it was 30%.
